Measurements from article PMC10035947, “Development of novel anilinoquinazoline-based carboxylic acids as non-classical carbonic anhydrase IX and XII inhibitors” (Journal of Enzyme Inhibition and Medicinal Chemistry, 2023).
Like-named read-outs stand apart in the source and are kept apart here.

Experiments:
Experiment in all cases: NCI SRB assay
Type in all cases: cell-based, human
[1] = system: SN12C; conditions: for CC50: read-out: LC50 (the source's name)
[2] = system: 786-0; conditions: for CC50: read-out: LC50 (the source's name)
[3] = system: DU-145; conditions: for CC50: read-out: LC50 (the source's name)
[4] = system: MALME-3M; conditions: for CC50: read-out: LC50 (the source's name)
[5] = system: SW-620
[6] = system: NCI-H522
[7] = system: HCT-116; conditions: for CC50: read-out: LC50 (the source's name)
[8] = system: OVCAR-3
[9] = system: SF-295
[10] = system: OVCAR-5; conditions: for CC50: read-out: LC50 (the source's name)
[11] = system: LOX IMVI
[12] = system: M14; conditions: for CC50: read-out: LC50 (the source's name)
[13] = system: OVCAR-8; conditions: for CC50: read-out: LC50 (the source's name)
[14] = system: CCRF-CEM
[15] = Homo sapiens, SN12C, SN 12 C, 5-dose
[16] = Homo sapiens, NCI-H522, NCI-H522, 5-dose

SMILES: Cc1ccc(-c2nc(Nc3ccccc3C(=O)O)c3ccccc3n2)cc1 [6b, 2-((2-(p-Tolyl)quinazolin-4-yl)amino)benzoic acid]
- CC50 ([1]; Homo sapiens, SN12C, 5-dose): > 100 µM
- CC50 [1, 15]: < 100 µM
- GI50 [1, 15]: 11 µM
- GI% ([1]; SN12C, 10 μM): 78%
- Growth Percent ([1]; SN12C, 1.00E-5 Molar): 22.24%
- TGI ([1]; SN 12 C, 5-dose): 60.4 µM
- TGI ([1]; SN12C, 5-dose): 6.04E-5 Molar
- GI% ([2]; 786-0, 10 μM): 81%
- Growth Percent ([2]; 786-0, 1.00E-5 Molar): 18.67%
- TGI ([2]; 786-0, 5-dose): <100 µM
- TGI ([2]; 786-0, 5-dose, listed as D - 835857): > 1.00E-4 Molar
- CC50 ([2]; 786-0, 5-dose): < 100 µM
- CC50 ([2]; Homo sapiens, 786-0, 786-0, 5-dose): > 100 µM
- GI50 ([2]; Homo sapiens, 786-0, 5-dose): 17.1 µM
- GI% ([3]; DU-145, 10 μM): 81%
- Growth Percent ([3]; DU-145, 1.00E-5 Molar): 19.37%
- TGI ([3]; DU-145, 5-dose): <100 µM
- TGI ([3]; DU-145, 5-dose, listed as D - 835857): > 1.00E-4 Molar
- CC50 ([3]; DU-145, 5-dose): < 100 µM
- CC50 ([3]; Homo sapiens, DU-145, DU-145, 5-dose): > 100 µM
- GI50 ([3]; Homo sapiens, DU-145, 5-dose): 17.7 µM
- GI% ([4]; 10 μM): 80%
- Growth Percent ([4]; 1.00E-5 Molar): 19.56%
- TGI ([4]; 5-dose): 64.5 µM
- TGI ([4]; 5-dose, listed as D - 835857): 6.45E-5 Molar
- CC50 ([4]; 5-dose): < 100 µM
- GI50 ([4]; Homo sapiens, 5-dose): 15.6 µM
- CC50 ([4]; Homo sapiens, Malme-3M, 5-dose): > 100 µM
- LC50 ([5]; Homo sapiens, SW-620, SW-620, 5-dose): > 100 µM
- GI50 ([5]; Homo sapiens, SW-620, 5-dose): 18.2 µM
- GI% ([5]; SW-620, 10 μM): 86%
- Growth Percent ([5]; SW-620, 1.00E-5 Molar): 14.46%
- LC50 ([5]; SW-620, 5-dose): < 100 µM
- TGI ([5]; SW-620, 5-dose): <100 µM
- TGI ([5]; SW-620, 5-dose, listed as D - 835857): > 1.00E-4 Molar
- GI50 [6, 16]: 4.35 µM
- LC50 [6, 16]: > 100 µM
- GI% ([6]; NCI-H522, 10 μM): 67%
- Growth Percent ([6]; NCI-H522, 1.00E-5 Molar): 33.17%
- GI50 ([6]; NCI-H522, 5-dose): 4.4 µM
- LC50 ([6]; NCI-H522, 5-dose): < 100 µM
- TGI ([6]; NCI-H522, 5-dose): 27.1 µM
- TGI ([6]; NCI-H522, 5-dose, listed as D - 835857): 2.71E-5 Molar
- GI% ([7]; HCT-116, 10 μM): 93%
- Growth Percent ([7]; HCT-116, 1.00E-5 Molar): 6.70%
- TGI ([7]; HCT-116, 5-dose): 36.1 µM
- TGI ([7]; HCT-116, 5-dose, listed as D - 835857): 3.61E-5 Molar
- CC50 ([7]; HCT-116, 5-dose): < 100 µM
- CC50 ([7]; Homo sapiens, HCT-116, HCT-116, 5-dose): > 100 µM
- GI50 ([7]; Homo sapiens, HCT-116, 5-dose): 10.1 µM
- GI50 ([8]; Homo sapiens, OVCAR-3, 5-dose): 13.1 µM
- CC50 ([8]; Homo sapiens, OVCAR-3, 5-dose, read-out: LC50 (the source's name)): > 100 µM
- GI% ([8]; OVCAR-3, 10 μM): 94%
- Growth Percent ([8]; OVCAR-3, 1.00E-5 Molar): 6.01%
- TGI ([8]; OVCAR-3, 5-dose): 5.13E-5 Molar
- GI50 ([9]; Homo sapiens, SF-295, 5-dose): 7.04 µM
- CC50 ([9]; Homo sapiens, SF-295, 5-dose, read-out: LC50 (the source's name)): 86 µM
- GI% ([9]; SF-295, 10 μM): 94%
- Growth Percent ([9]; SF-295, 1.00E-5 Molar): 5.81%
- TGI ([9]; SF-295, 5-dose): 27.0 µM
- TGI ([9]; SF-295, 5-dose, listed as D - 835857): 2.70E-5 Molar
- CC50 ([10]; Homo sapiens, OVCAR-5, OVCAR-5, 5-dose): > 100 µM
- GI50 ([10]; Homo sapiens, OVCAR-5, 5-dose): 21.8 µM
- GI% ([10]; OVCAR-5, 10 μM): 34%
- Growth Percent ([10]; OVCAR-5, 1.00E-5 Molar): 65.92%
- TGI ([10]; OVCAR-5, 5-dose): 68.9 µM
- TGI ([10]; OVCAR-5, 5-dose, listed as D - 835857): 6.89E-5 Molar
- CC50 ([10]; OVCAR-5, 5-dose): < 100 µM
- GI% ([11]; 10 μM): 91%
- Growth Percent ([11]; 1.00E-5 Molar): 8.57%
- TGI ([11]; 5-dose): 31.6 µM
- TGI ([11]; 5-dose, listed as D - 835857): 3.16E-5 Molar
- GI50 ([11]; Homo sapiens, 5-dose): 10.2 µM
- CC50 ([11]; Homo sapiens, 5-dose, read-out: LC50 (the source's name)): 97.7 µM
- CC50 ([12]; Homo sapiens, M14, M14, 5-dose): > 100 µM
- GI50 ([12]; Homo sapiens, M14, 5-dose): 15.5 µM
- GI% ([12]; M14, 10 μM): 87%
- Growth Percent ([12]; M14, 1.00E-5 Molar): 12.58%
- TGI ([12]; M14, 5-dose): 77.4 µM
- TGI ([12]; M14, 5-dose, listed as D - 835857): 7.74E-5 Molar
- CC50 ([12]; M14, 5-dose): < 100 µM
- CC50 ([13]; Homo sapiens, OVCAR-8, OVCAR-8, 5-dose): > 100 µM
- GI50 ([13]; Homo sapiens, OVCAR-8, 5-dose): 18.2 µM
- GI% ([13]; OVCAR-8, 10 μM): 69%
- Growth Percent ([13]; OVCAR-8, 1.00E-5 Molar): 30.51%
- TGI ([13]; OVCAR-8, 5-dose): <100 µM
- TGI ([13]; OVCAR-8, 5-dose, listed as D - 835857): > 1.00E-4 Molar
- CC50 ([13]; OVCAR-8, 5-dose): < 100 µM
- GI% ([14]; 10 μM): 87%
- Growth Percent ([14]; 1.00E-5 Molar): 12.80%
